Data reported in patent publication US20240366649A1, “4-ETHYNYL-3-HYDROXY-TETRAHYDROFURANYL-ADENINE PHOSPHORAMIDATES AND RELATED COMPOUNDS AND THEIR USE IN TREATING MEDICAL CONDITIONS” (ROME THERAPEUTICS, INC., priority 2021, published 2024).

How the values were obtained:
[1] = system: Esophageal cancer TE-1 cells; experiment: Cancer cell viability assay with 3D cell colonies (CellTiter-Glo), TE-1; assay type: cell-based; conditions: Homo sapiens, 168 h; TE-1, 3D methylcellulose colonies, 7 days
Protocol: (§1) Cancer cell lines were cultured in the following media: • Ovarian cancer OVCAR-8 cells—RPMI media containing 10% FBS • Ovarian cancer SK-OV-3 cells—McCoy's 5a media containing 10% FBS • Ovarian cancer SW756 cells—L-15 (100% air)+10% FBS • Esophageal cancer TE-1 cells—RPMI-1640+10% FBS • Esophageal cancer KYSE-410 cells—RPMI-1640+5˜10% FBS • Esophageal cancer KYSE-70 cells—RPMI-1640+10% h.i.FBS. • Pharyngeal cancer FaDu cells—MEM+0.01 mM NEAA+10% FBS
(§2) Cell colony formation was tested using a 3D methylcellulose-based CellTiter-Glo (CTG) viability assay (Cat. No: G7573, Promega). Briefly, cells were inoculated into 96-well plates (at 1,500 cells per well) into a solution of 0.65% methylcellulose in growth media and incubated overnight at 37° C. in 5% CO2. The next day, serially diluted test compound (islatravir, 4′-ethynyl-2-fluoro-2′-deoxyadenosine) or positive control (cisplatin, Cat. No. 6J015A89, Qilu Pharma) were added at the indicated concentrations, and the cells were incubated for 7 days. On day seven, 100 μL of CTG reagent was added, and the plates were incubated at room temperature for 20 min. Luminescence was read on an Envision Multi Label Reader according to manufacturer's instructions. IC50 values were determined using the following calculation: […]

[2] = system: Ovarian cancer SK-OV-3 cells; experiment: Cancer cell viability assay with 3D cell colonies (CellTiter-Glo), SK-OV-3; assay type: cell-based; conditions: Homo sapiens, 168 h; SK-OV-3, 3D methylcellulose colonies, 7 days
Protocol: as §1, §2

[3] = system: interferon-stimulated gene (ISG) expression; experiment: In vivo decitabine challenge model; parameters: species or system C57BL/6 mice; conditions: mice; decitabine i.p. 5 mg/kg and islatravir p.o. 0.6-6.0 mg/kg once a day Day 0 to Day 4; IFIT2 v. GAPDH
Protocol: Twenty 9-11 week old C57BL/6 mice were acclimated to the lab for at least 5 days. Islatravir (4′-ethynyl-2-fluoro-2′-deoxyadenosine) was prepared in a 0.5% methylcellulose solution for p.o. administration. Decitabine (Sigma) was dissolved in sterile PBS (pH 7.4) and dosed within 30 minutes of preparation of the solution. Doses of both islatravir and decitabine were administered once a day, every day from Day 0 to Day 4.
On Day 0, mice were split into four groups of five mice and given their first dose of decitabine (i.p., 5 mg/kg) and […]. Dosing groups were:
Decitabine and islatravir were administered daily from Day 0 to Day 4. All mice were euthanized 1 hour after the last dose administration on Day 4. Spleens, liver, and terminal colon were collected, along with plasma from each animal. The fold changes in interferon-stimulated gene (ISG) expression was calculated by first normalizing to GAPDH gene using the Delta CT method. The CT (gene of interest)−CT (reference gene) was calculated to generate a delta CT for all samples. The fold change was then calculated by taking the […](Delta CT(control)−Delta CT (experimental). The control in this example was the PBS control animal group. The Taqman duplex assay (Thermo Fisher 4331182 and 4448489) was used according to the manufacturer's instructions to determine levels of GAPDH v. IFIT2.

[4] = system: Esophageal cancer KYSE-70 cells; experiment: Cancer cell viability assay with 3D cell colonies (CellTiter-Glo), KYSE-70; assay type: cell-based; conditions: Homo sapiens, 168 h; KYSE-70, 3D methylcellulose colonies, 7 days
Protocol: as §1, §2

[5] = system: IFN production in THP1 TREX1 KO cells; experiment: Cellular assay for altering IFN production in THP1 TREX1 KO cells; assay type: cell-based; conditions: FIG. 6-8, % induction versus compound concentration
Protocol: THP1-Dual™ KO-TREX1 cells were purchased from Invivogen (cat #thpd-kotrex). The THP1-Dual™ KO-TREX1 cells were cultured in RPMI 1640, 10% heat-inactivated fetal bovine serum, 25 mM HEPES, 10 μg/mL Blasticidin, and […] Zeocin. THP1-Dual™ KO-TREX cells were treated with a dose titration of test compound in the presence of 1 μM 5-aza-2′-deoxycytidine (Sigma, cat #189825). Type 1 Interferon and cell viability were assessed after five days of treatment.
Stock solution of test compound was prepared in DMSO followed by a three-fold dilution in DMSO. Additional 50× dilution was prepared in cell culture media for each dilution. 10 μL of diluted test compound was then added to a 384-well plate.
THP1-Dual™ KO-TREX1 cells were treated with 1 μM 5-aza-2′-deoxycytidine. THP1-Dual™ KO-TREX1 cells (50 μL) were added to each well of the 384-well plate containing test compound titration at 10,000 cells/well. Cells were incubated at 37° C., 5% CO2 in a humidified incubator for five days. On day five, 20 μL of cell supernatant was transferred to a 384-well, white-walled plate, followed by addition to each well of 50 μL of QUANTI-LUC solution containing stabilizer. Luminescence was detected on a plate reader according to manufacturer's instructions.
For certain compounds, the assay was run in a 96-well format, with the following modifications: • 190 μL, instead of 50 μL, of cells were added to each well, to provide 50,000 cells/well, instead of 10,000 cells/well, • Cells were incubated for 6 days, instead of 5 days, • 25 μL, instead of 20 μL, of cell supernatant was added to the white-walled plate for QUANT-LUC treatment; and • 25 μL, instead of 30 μL, of CellTiter-Glo was added to assess cell viability.
Percent inhibition of interferon was calculated using the following analysis: (Average DMSO-Sample)/(Average DMSO-Average 30 μM control reagent)*100. The control reagent for inhibition of interferon was a specific nucleoside reverse-transcriptase inhibitor with molecular weight <600 a.m.u. Percent induction of interferon was calculated using the following analysis: (Sample-Average DMSO)/(10 μM control reagent-Average DMSO)*100. The control reagent for induction of interferon was compound 8 (4′-ethynyl-2-chloro-2′-deoxyadenosine).

[6] = system: Ovarian cancer OVCAR-8 cells; experiment: Cancer cell viability assay with 3D cell colonies (CellTiter-Glo), OVCAR-8; assay type: cell-based; conditions: Homo sapiens, 168 h; OVCAR-8, 3D methylcellulose colonies, 7 days
Protocol: as §1, §2

IC50 [1]: ≤ 10 µM | IC50 [2]: ≤ 10 µM | IC50 [4]: 10 to 30 µM | IC50 [6]: ≤ 10 µM
SMILES: C#C[C@]1(CO)O[C@@H](n2cnc3c(N)nc(F)nc32)C[C@@H]1O [islatravir, 4′-ethynyl-2-fluoro-2′-deoxyadenosine]
interferon-stimulated gene (ISG) response [3]: showed the change in ISG response | change in IFN levels (figure) [5]: induction of IFN
